Assay: Oral bioavailability in CD IGS rat at 10 mg/kg measured after 26 hrs
Type: ADME, organism-based
Details: in vivo

bioavailability [%]	SMILES
17	COc1cncc(-c2nc(NC(C)(C)CO)nc3sc(C(N)=O)c(N)c23)c1
0.3	NC(=O)c1sc2ncnc(-c3cccc(NC(=O)Nc4ccc(C(F)(F)F)cc4)c3)c2c1N
